Literature values, collected in patent US7705151B2, “1,6 Naphthridines useful as inhibitors of SYK kinase” (Boehringer Ingelheim Pharmaceuticals, Inc., priority 2001, dated 2010).

Legend:
[1] = test system: rodent mast cells
[2] = test system: human mast cells

Cc1ccc2c(=O)c3ccccc3n(CCCN)c2c1C.O=C(O)C(=O)O [ER-27319, 3,4-dimethyl-10-(3-aminopropyl)-9-acridone oxalate]
inhibition of anti-IgE mediated degranulation [1]: inhibit anti-IgE mediated degranulation
inhibition of anti-IgE mediated degranulation [2]: inhibit anti-IgE mediated degranulation
